From PubChem BioAssay AID1918939 (Molecular Pharmacology Branch, DTP, NCI, 2023)

Tested on: 653999-131-R-J2-PDC complex spheroid viability
Assay: Anticancer human tumor 653999-131-R-J2-PDC patient-derived lung adenocarcinoma cell line growth inhibition
Settings: for IC50: curve of first compound; for viability, T/C: stronger effect = lower value
How it was run: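 Complex spheroids of tumor cells with HUVEC and human MSCs, exposed to iadademstat combined with other agents. Each agent tested in half-log steps from near clinical Cmax (else 10 microM top), DMSO ≤0.25%.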

[1] = second compound 0.1 µM, first compound 0.00316 µM
[2] = second compound 0.1 µM, first compound 0.01 µM
[3] = second compound 0.1 µM, first compound 0.0316 µM
[4] = second compound 0.1 µM, first compound 0.1 µM
[5] = second compound 0.316 µM, first compound 0.00316 µM
[6] = second compound 0.316 µM, first compound 0.01 µM
[7] = second compound 0.316 µM, first compound 0.0316 µM
[8] = second compound 0.316 µM, first compound 0.1 µM
[9] = second compound 1 µM, first compound 0.00316 µM
[10] = second compound 1 µM, first compound 0.01 µM
[11] = second compound 1 µM, first compound 0.0316 µM
[12] = second compound 1 µM, first compound 0.1 µM
[13] = second compound 3.16 µM, first compound 0.00316 µM
[14] = second compound 3.16 µM, first compound 0.01 µM
[15] = second compound 3.16 µM, first compound 0.0316 µM
[16] = second compound 3.16 µM, first compound 0.1 µM
[17] = second compound 10 µM, first compound 0.00316 µM
[18] = second compound 10 µM, first compound 0.01 µM
[19] = second compound 10 µM, first compound 0.0316 µM
[20] = second compound 10 µM, first compound 0.1 µM
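Also: spheroids exposed to agents for seven days before readout.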

Compound: COc1cc(Nc2ncc3c(n2)-c2ccc(Cl)cc2C(c2c(F)cccc2OC)=NC3)ccc1C(=O)O + NC1CCC(NC2CC2c2ccccc2)CC1
- IC50 (second compound 0.1 µM): > 1 µM
- IC50 (second compound 0.316 µM): > 1 µM
- IC50 (second compound 1 µM): > 1 µM
- IC50 (second compound 3.16 µM): > 1 µM
- IC50 (second compound 10 µM): > 1 µM
- viability, T/C [1]: 78.7%
- viability, T/C [2]: 89.2%
- viability, T/C [3]: 74.2%
- viability, T/C [4]: 78.5%
- viability, T/C (second compound 0.1 µM, first compound 0.316 µM): 73.7%
- viability, T/C (second compound 0.1 µM, first compound 1 µM): 76.1%
- viability, T/C [5]: 85.4%
- viability, T/C [6]: 72.8%
- viability, T/C [7]: 63.9%
- viability, T/C [8]: 68.1%
- viability, T/C (second compound 0.316 µM, first compound 0.316 µM): 71.3%
- viability, T/C (second compound 0.316 µM, first compound 1 µM): 75.6%
- viability, T/C [9]: 76.6%
- viability, T/C [10]: 84.3%
- viability, T/C [11]: 78.6%
- viability, T/C [12]: 69.2%
- viability, T/C (second compound 1 µM, first compound 0.316 µM): 61.9%
- viability, T/C (second compound 1 µM, first compound 1 µM): 74.9%
- viability, T/C [13]: 92.2%
- viability, T/C [14]: 73.9%
- viability, T/C [15]: 79.2%
- viability, T/C [16]: 65.6%
- viability, T/C (second compound 3.16 µM, first compound 0.316 µM): 79.7%
- viability, T/C (second compound 3.16 µM, first compound 1 µM): 72%
- viability, T/C [17]: 92.9%
- viability, T/C [18]: 81.4%
- viability, T/C [19]: 71.7%
- viability, T/C [20]: 71.2%
- viability, T/C (second compound 10 µM, first compound 0.316 µM): 60.9%
- viability, T/C (second compound 10 µM, first compound 1 µM): 79.7%

Compound: Cn1ncnc1C1c2n[nH]c(=O)c3cc(F)cc(c23)NC1c1ccc(F)cc1 (stereo not given) + NC1CCC(NC2CC2c2ccccc2)CC1
- IC50 (second compound 0.1 µM): > 0.1 µM
- IC50 (second compound 0.316 µM): > 0.1 µM
- IC50 (second compound 1 µM): > 0.1 µM
- IC50 (second compound 3.16 µM): > 0.1 µM
- IC50 (second compound 10 µM): > 0.1 µM
- viability, T/C (second compound 0.1 µM, first compound 0.000316 µM): 86.9%
- viability, T/C (second compound 0.1 µM, first compound 0.001 µM): 86.9%
- viability, T/C [1]: 85.6%
- viability, T/C [2]: 73%
- viability, T/C [3]: 80.9%
- viability, T/C [4]: 71.4%
- viability, T/C (second compound 0.316 µM, first compound 0.000316 µM): 85.4%
- viability, T/C (second compound 0.316 µM, first compound 0.001 µM): 82.5%
- viability, T/C [5]: 82.1%
- viability, T/C [6]: 87.2%
- viability, T/C [7]: 73.9%
- viability, T/C [8]: 86%
- viability, T/C (second compound 1 µM, first compound 0.000316 µM): 95.6%
- viability, T/C (second compound 1 µM, first compound 0.001 µM): 81.3%
- viability, T/C [9]: 82.9%
- viability, T/C [10]: 74.9%
- viability, T/C [11]: 75.9%
- viability, T/C [12]: 78.1%
- viability, T/C (second compound 3.16 µM, first compound 0.000316 µM): 94.6%
- viability, T/C (second compound 3.16 µM, first compound 0.001 µM): 91.8%
- viability, T/C [13]: 91.1%
- viability, T/C [14]: 87.3%
- viability, T/C [15]: 76.7%
- viability, T/C [16]: 72.1%
- viability, T/C (second compound 10 µM, first compound 0.000316 µM): 96.9%
- viability, T/C (second compound 10 µM, first compound 0.001 µM): 99.4%
- viability, T/C [17]: 97.6%
- viability, T/C [18]: 84.5%
- viability, T/C [19]: 72%
- viability, T/C [20]: 78.2%

Compound: NS(=O)(=O)OCC1CC(n2ccc3c(NC4CCc5ccccc54)ncnc32)CC1O (stereo not given) + NC1CCC(NC2CC2c2ccccc2)CC1
- IC50 (second compound 0.1 µM): > 3 µM
- IC50 (second compound 0.316 µM): > 3 µM
- IC50 (second compound 1 µM): > 3 µM
- IC50 (second compound 3.16 µM): > 3 µM
- IC50 (second compound 10 µM): > 3 µM
- viability, T/C (second compound 0.1 µM, first compound 0.00949 µM): 97.5%
- viability, T/C (second compound 0.1 µM, first compound 0.03 µM): 80.8%
- viability, T/C (second compound 0.1 µM, first compound 0.0949 µM): 106%
- viability, T/C (second compound 0.1 µM, first compound 0.3 µM): 107%
- viability, T/C (second compound 0.1 µM, first compound 0.949 µM): 54.7%
- viability, T/C (second compound 0.1 µM, first compound 3 µM): 61.1%
- viability, T/C (second compound 0.316 µM, first compound 0.00949 µM): 97.8%
- viability, T/C (second compound 0.316 µM, first compound 0.03 µM): 81.6%
- viability, T/C (second compound 0.316 µM, first compound 0.0949 µM): 105%
- viability, T/C (second compound 0.316 µM, first compound 0.3 µM): 114%
- viability, T/C (second compound 0.316 µM, first compound 0.949 µM): 55.6%
- viability, T/C (second compound 0.316 µM, first compound 3 µM): 50.7%
- viability, T/C (second compound 1 µM, first compound 0.00949 µM): 94.4%
- viability, T/C (second compound 1 µM, first compound 0.03 µM): 92.8%
- viability, T/C (second compound 1 µM, first compound 0.0949 µM): 91.2%
- viability, T/C (second compound 1 µM, first compound 0.3 µM): 116%
- viability, T/C (second compound 1 µM, first compound 0.949 µM): 60.5%
- viability, T/C (second compound 1 µM, first compound 3 µM): 56.2%
- viability, T/C (second compound 3.16 µM, first compound 0.00949 µM): 105%
- viability, T/C (second compound 3.16 µM, first compound 0.03 µM): 98.7%
- viability, T/C (second compound 3.16 µM, first compound 0.0949 µM): 100%
- viability, T/C (second compound 3.16 µM, first compound 0.3 µM): 105%
- viability, T/C (second compound 3.16 µM, first compound 0.949 µM): 58.6%
- viability, T/C (second compound 3.16 µM, first compound 3 µM): 59.2%
- viability, T/C (second compound 10 µM, first compound 0.00949 µM): 116%
- viability, T/C (second compound 10 µM, first compound 0.03 µM): 101%
- viability, T/C (second compound 10 µM, first compound 0.0949 µM): 105%
- viability, T/C (second compound 10 µM, first compound 0.3 µM): 118%
- viability, T/C (second compound 10 µM, first compound 0.949 µM): 63.7%
- viability, T/C (second compound 10 µM, first compound 3 µM): 54.2%
